Experimental data taken from patent US6914045B2, “Glycopeptide antibiotics” (Wyeth Holdings Corporation, priority 2001, dated 2005).

Columns and labels:
Assay in all cases: in vitro antibacterial evaluation, MIC by broth dilution
Type in all cases: cell-based
Enterococcus sp. = details: broth dilution, 18 hours at 35° C.
In short: (§1)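 Broth dilution per NCCLS standard M7-A2 in Muller-Hinton II […], with an inoculum of 5×10^5 CFU/mL and antibiotic spanning 64-0.06 μg/mL. The MIC is the lowest concentration that inhibits growth of the organism.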

Escherichia coli = details: 18 hours at 35° C.
In short: as §1

Staphylococcus sp. = details: broth dilution, 18 hours at 35° C.
In short: as §1

Streptococcus sp. = details: broth dilution, 18 hours at 35° C.
In short: as §1

[1] = Enterococcus faecalis (ATCC 29212)
[2] = Enterococcus faecalis (GC 4553)
[3] = Enterococcus faecalis (GC 4554)

CC(c1ccccc1)C1NC(=O)CNC(=O)C(CO)NC(=O)C(C(O)C2CNC(=N)N2C2OC(CO)C(O)C(O)C2O)NC(=O)C(C(O)C2CNC(=N)N2)NC(=O)C(Cc2ccc(OC3OC(CO)C(OC4OC5COC(c6ccsc6)OC5C(O)C4O)C(O)C3O)cc2)NC1=O (stereo not shown) [Example 133]
<0.5 µg/mL: MIC Escherichia coli (GC 4560) (Escherichia coli; strain GC 4560) | MIC Coagulase Negative Staphylococcus (GC 4548) (Staphylococcus sp.; strain GC 4548) | MIC Streptococcus agalactiae (GC 4564) (Streptococcus sp.; Streptococcus agalactiae (GC 4564)) | MIC Streptococcus pneumoniae (ATCC 6301) (Streptococcus sp.; Streptococcus pneumoniae (ATCC 6301)) | MIC Streptococcus pneumoniae (GC 1894) (Streptococcus sp.; Streptococcus pneumoniae (GC 1894)) | MIC Streptococcus pyogenes (GC 4563) (Streptococcus sp.; Streptococcus pyogenes (GC 4563)) | MIC Streptococcus pneumoniae (ATCC 6301) (Streptococcus sp.; strain ATCC 6301) | MIC Streptococcus pneumoniae (GC 1894) (Streptococcus sp.; strain GC 1894) | MIC Streptococcus pyogenes (GC 4563) (Streptococcus sp.; strain GC 4563) | MIC Streptococcus agalactiae (GC 4564) (Streptococcus sp.; strain GC 4564)
32 µg/mL: MIC Escherichia coli (GC 4559) (Escherichia coli; strain GC 4559)
1 µg/mL: MIC Staphylococcus aureus (ATCC 29213) (Staphylococcus sp.) | MIC Staphylococcus aureus (GC 3051) (Staphylococcus sp.) | MIC Staphylococcus aureus (GC 4541) (Staphylococcus sp.) | MIC Staphylococcus aureus (GC 4545) (Staphylococcus sp.) | MIC Staphylococcus aureus (ATCC 29213) (Staphylococcus sp.; strain ATCC 29213) | MIC Staphylococcus aureus (GC 3051) (Staphylococcus sp.; strain GC 3051) | MIC Staphylococcus aureus (GC 4541) (Staphylococcus sp.; strain GC 4541) | MIC Staphylococcus aureus-SMITH (GC 4543) (Staphylococcus sp.; strain GC 4543) | MIC Staphylococcus aureus (GC 4545) (Staphylococcus sp.; strain GC 4545) | MIC Staphylococcus haemolyticus (GC 4546) (Staphylococcus sp.; strain GC 4546) | MIC Coagulase Negative Staphylococcus (GC 4547) (Staphylococcus sp.; strain GC 4547) | MIC Coagulase Negative Staphylococcus (GC 4549) (Staphylococcus sp.; strain GC 4549) | MIC Coagulase Negative Staphylococcus (GC 4551) (Staphylococcus sp.; strain GC 4551) | MIC Coagulase Negative Staphylococcus (GC 6257) (Staphylococcus sp.; strain GC 6257) | MIC Staphylococcus aureus-SMITH (GC 4543) (Staphylococcus sp.; strain SMITH GC 4543)
8 µg/mL: MIC Enterococcus avium (GC 4558) (Enterococcus sp.; Enterococcus avium (GC 4558)) | MIC Enterococcus faecalis (ATCC 29212) (Enterococcus sp.; [1]) | MIC Enterococcus faecalis (GC 2691) (Enterococcus sp.; Enterococcus faecalis (GC 2691)) | MIC Enterococcus faecalis (GC 3059) (Enterococcus sp.; Enterococcus faecalis (GC 3059)) | MIC Enterococcus faecalis (GC 4552) (Enterococcus sp.; Enterococcus faecalis (GC 4552)) | MIC Enterococcus faecalis (GC 4553) (Enterococcus sp.; [2]) | MIC Enterococcus faecalis (GC 4554) (Enterococcus sp.; [3]) | MIC Enterococcus faecium (GC 2243) (Enterococcus sp.; Enterococcus faecium (GC 2243)) | MIC Enterococcus faecium (GC 4556) (Enterococcus sp.; Enterococcus faecium (GC 4556)) | MIC Enterococcus faecalis (ATCC 29212) (Enterococcus sp.; strain ATCC 29212) | MIC Enterococcus faecium (GC 2243) (Enterococcus sp.; strain GC 2243) | MIC Enterococcus faecalis (GC 2691) (Enterococcus sp.; strain GC 2691) | MIC Enterococcus faecalis (GC 3059) (Enterococcus sp.; strain GC 3059) | MIC Enterococcus faecalis (GC 4552) (Enterococcus sp.; strain GC 4552) | MIC Enterococcus faecalis (GC 4553) (Enterococcus sp.; strain GC 4553) | MIC Enterococcus faecalis (GC 4554) (Enterococcus sp.; strain GC 4554) | MIC Enterococcus faecium (GC 4556) (Enterococcus sp.; strain GC 4556) | MIC Enterococcus avium (GC 4558) (Enterococcus sp.; strain GC 4558)
2 µg/mL: MIC Enterococcus faecium (GC 4557) (Enterococcus sp.; Enterococcus faecium (GC 4557)) | MIC Enterococcus faecium (GC 4557) (Enterococcus sp.; strain GC 4557) | MIC Staphylococcus aureus (GC 1131) (Staphylococcus sp.) | MIC Staphylococcus aureus (GC 4542) (Staphylococcus sp.) | MIC Staphylococcus aureus (GC 4544) (Staphylococcus sp.) | MIC Staphylococcus aureus (GC 1131) (Staphylococcus sp.; inoculum 5×10^5 CFU/mL, strain GC 1131) | MIC Staphylococcus aureus (GC 4542) (Staphylococcus sp.; strain GC 4542) | MIC Staphylococcus aureus (GC 4544) (Staphylococcus sp.; strain GC 4544)
4 µg/mL: MIC Enterococcus faecalis (GC 2242) (Enterococcus sp.; Enterococcus faecalis (GC 2242)) | MIC Enterococcus faecalis (GC 6189) (Enterococcus sp.; Enterococcus faecalis (GC 6189)) | MIC Enterococcus faecalis (GC 2242) (Enterococcus sp.; strain GC 2242) | MIC Enterococcus faecalis (GC 6189) (Enterococcus sp.; strain GC 6189) | MIC Staphylococcus aureus (GC 3053) (Staphylococcus sp.) | MIC Staphylococcus aureus (GC 3053) (Staphylococcus sp.; strain GC 3053) | MIC Streptococcus pneumoniae (GC 4565) (Streptococcus sp.; Streptococcus pneumoniae (GC 4565)) | MIC Streptococcus pneumoniae (GC 4565) (Streptococcus sp.; strain GC 4565)
64 µg/mL: MIC Escherichia coli (ATCC 25922) (Escherichia coli; strain ATCC 25922)

CC(=O)OCC1OC(OC2C(CO)OC(Oc3ccc(CC4NC(=O)C(C(C)c5ccccc5)NC(=O)CNC(=O)C(CO)NC(=O)C(C(O)C5CNC(=N)N5C5OC(CO)C(O)C(O)C5O)NC(=O)C(C(O)C5CNC(=N)N5)NC4=O)cc3)C(O)C2O)C(O)C(OC(=O)CCC(C)C)C1O (stereo not drawn) [Example 270b, Cyclo[glycyl-β-methylphenylalanyl-O-[4-O-[6-O-acetyl-3-O-(4-methylpentanoyl)hexopyranosyl]hexopyranosyl]tyrosyl-3-(2-iminoimidazolidin-4-yl)seryl-3-(3-hexopyranosyl-2-iminoimidazolidin-4-yl)serylseryl]]
2 µg/mL: MIC Streptococcus agalactiae (GC 4564) (Streptococcus sp.; strain GC 4564) | MIC Streptococcus pyogenes (ID-3187) (Streptococcus sp.; strain ID-3187)
4 µg/mL: MIC Escherichia coli (GC 4560) (Escherichia coli; Escherichia coli (GC 4560)) | MIC Coagulase Negative Staphylococcus (GC 4547) (Staphylococcus sp.) | MIC Coagulase Negative Staphylococcus (GC 4548) (Staphylococcus sp.) | MIC Coagulase Negative Staphylococcus (GC 4549) (Staphylococcus sp.) | MIC Coagulase Negative Staphylococcus (GC 4551) (Staphylococcus sp.) | MIC Staphylococcus aureus (GC 4545) (Staphylococcus sp.) | MIC Staphylococcus aureus-SMITH (GC 4543) (Staphylococcus sp.) | MIC Staphylococcus haemolyticus (GC 4546) (Staphylococcus sp.) | MIC Staphylococcus aureus (GC 4545) (Staphylococcus sp.; strain GC 4545) | MIC Staphylococcus haemolyticus (GC 4546) (Staphylococcus sp.; strain GC 4546) | MIC Coagulase Negative Staphylococcus (GC 4547) (Staphylococcus sp.; strain GC 4547) | MIC Coagulase Negative Staphylococcus (GC 4548) (Staphylococcus sp.; strain GC 4548) | MIC Coagulase Negative Staphylococcus (GC 4549) (Staphylococcus sp.; strain GC 4549) | MIC Coagulase Negative Staphylococcus (GC 4551) (Staphylococcus sp.; strain GC 4551) | MIC Staphylococcus aureus-SMITH (GC 4543) (Staphylococcus sp.; strain SMITH GC 4543)
8 µg/mL: MIC Enterococcus faecium (GC 4557) (Enterococcus sp.; Enterococcus faecium (GC 4557)) | MIC Enterococcus faecium (GC 4557) (Enterococcus sp.; strain GC 4557) | MIC Staphylococcus aureus (ATCC 29213) (Staphylococcus sp.) | MIC Staphylococcus aureus (GC 1131) (Staphylococcus sp.) | MIC Staphylococcus aureus (GC 4541) (Staphylococcus sp.) | MIC Staphylococcus aureus (GC 4542) (Staphylococcus sp.) | MIC Staphylococcus aureus (GC 4544) (Staphylococcus sp.) | MIC Staphylococcus aureus (ATCC 29213) (Staphylococcus sp.; strain ATCC 29213) | MIC Staphylococcus aureus (GC 1131) (Staphylococcus sp.; strain GC 1131) | MIC Staphylococcus aureus (GC 4541) (Staphylococcus sp.; strain GC 4541) | MIC Staphylococcus aureus (GC 4542) (Staphylococcus sp.; strain GC 4542) | MIC Staphylococcus aureus (GC 4544) (Staphylococcus sp.; strain GC 4544)
16 µg/mL: MIC Enterococcus faecalis (GC 2242) (Enterococcus sp.; strain GC 2242)
>64 µg/mL: MIC Escherichia coli (ATCC 25922) (Escherichia coli; Escherichia coli (ATCC 25922)) | MIC Escherichia coli (GC 4559) (Escherichia coli; Escherichia coli (GC 4559))
32 µg/mL: MIC Enterococcus avium (GC 4558) (Enterococcus sp.; Enterococcus avium (GC 4558)) | MIC Enterococcus faecalis (ATCC 29212) (Enterococcus sp.; [1]) | MIC Enterococcus faecalis (GC 4553) (Enterococcus sp.; [2]) | MIC Enterococcus faecalis (GC 4554) (Enterococcus sp.; [3]) | MIC Enterococcus faecium (GC 2243) (Enterococcus sp.; Enterococcus faecium (GC 2243)) | MIC Enterococcus faecium (GC 4556) (Enterococcus sp.; Enterococcus faecium (GC 4556)) | MIC Enterococcus faecalis (ATCC 29212) (Enterococcus sp.; strain ATCC 29212) | MIC Enterococcus faecium (GC 2243) (Enterococcus sp.; strain GC 2243) | MIC Enterococcus faecalis (GC 4552) (Enterococcus sp.; strain GC 4552) | MIC Enterococcus faecalis (GC 4553) (Enterococcus sp.; strain GC 4553) | MIC Enterococcus faecalis (GC 4554) (Enterococcus sp.; strain GC 4554) | MIC Enterococcus faecium (GC 4556) (Enterococcus sp.; strain GC 4556) | MIC Enterococcus avium (GC 4558) (Enterococcus sp.; strain GC 4558)
